Read-outs that look alike come from different tables or passages of the source.
Columns and labels:
Type in all cases: cell-based
HepG2 cells [1] = experiment: Measurement of cholesterol synthesis inhibitory ability (cholesterol content in cell lysates, Amplex red)
Protocol: (§1) 2 mM metformin was used as a comparative compound for each of the plates (control group).
A cholesterol synthesis inhibitory ability, which is an important function of AMPK (AMP-activated protein kinase), was measured using HepG2 cells (ATCC: American Type Culture Collection) as a hepatic cell model according to the following procedure.
The hepatic cell model HepG2 cells were cultured in 1% serum-containing media (DMEM (Gibco), FBS (Gibco)) for 24 hours, and then treated with 100 μM or 500 μM of each of the compounds prepared in Examples for 24 hours. Then, the cells were disrupted with a lysis solution (0.1 M potassium phosphate, pH 7.4, 0.05 M NaCl, 5 mM cholic acid, 0.1% Triton X-100 (Sigma)). To the disrupted cells was added the same volume of a reaction solution (2 U/mL of a cholesterol oxidizing agent, 2 U/mL of a peroxidase, 0.2 U/mL of a cholesterol esterase, and 300 μM of Amplex red as a fluorescent factor (Molecular Probe)), which was allowed to react at 37° C. for 30 minutes. After completion of the reaction, the content of cholesterol formed in the cell lysates was measured at a wavelength of 560/590 nm (ex/em) using a fluorescence microscope.
A lower measurement value means an increased cholesterol synthesis inhibitory ability.

HepG2 cells [2] = experiment: Measurement of triglyceride (triglyceride content in cell lysates, Amplex red)
Protocol: as §1
HepG2 cells (ATCC: American Type Culture Collection) were cultured in 1% serum-containing media (DMEM (Gibco), FBS (Gibco)) for 24 hours, and then treated with 100 μM or 500 μM of each of the compounds prepared in Examples for 24 hours. Then, the cells were disrupted with a lysis solution (0.1 M potassium phosphate, pH 7.4, 0.05 M NaCl, 5 mM cholic acid, 0.1% Triton X-100). […] After completion of the reaction, the content of triglyceride formed in the cell lysates was measured at a wavelength of 560/590 nm (ex/em) using a fluorescence microscope.
A lower measurement value means an increased triglyceride synthesis inhibitory ability.

HepG2 cells [3] = experiment: Measurement of gluconeogenesis inhibitory ability (14C-lactate, glucose formed in cells)
Protocol: as §1
HepG2 cells (ATCC: American Type Culture Collection) were cultured in 10% serum-containing high glucose media, transferred to no serum-containing low glucose media (DMEM (Gibco), FBS (Gibco)), and then treated with 100 μM of each of the compounds for 24 hours. Then, the cells were treated with 0.5 μCi ^14C-lactate (Amersham Pharmacia) and 10 mM L-lactate (Sigma), and cultured for 4 hours. After cultivation, the media were removed therefrom, and the cells were washed with PBS, treated with 0.1N NaOH and kept at room temperature for 1 hour. Then, the cells were neutralized with 1N HCl, and the content of glucose formed in the cells was measured with a liquid scintillation counter.
A lower measurement value means an increased gluconeogenesis inhibitory ability.

C2C12 cells = experiment: Measurement of glucose absorption ability (3H-deoxy-glucose uptake with insulin); conditions: 100 uM compound with 1 μM insulin, 24 hours, differentiated C2C12, higher value = stronger, more than 200% counts as glucose absorption ability
Protocol: as §1
C2C12 cells (ATCC: American Type Culture Collection), a muscle cell model, were induced to differentiate into muscle cells in 2% bovine fetal serum-containing media (DMEM (Gibco), FBS (Gibco)) for 6 days. The C2C12 cells which differentiated into muscle cells were transferred to serum-free low glucose media (DMEM (Gibco), FBS (Gibco)), treated with 100 μM of each of the compounds, and then cultured with 1 μM of insulin for 24 hours. After cultivation, the cells were treated with 1 μCi ^3H-deoxy-glucose (Amersham Pharmacia) and 10 μM deoxy-glucose (Sigma) at 37° C. for 15 minutes. The media were removed therefrom, and the cells were washed twice with PBS (phosphate buffered saline). The washed cells were treated with 0.1N NaOH and neutralized with 1N HCl. The content of glucose absorbed into the cells was measured with a liquid scintillation counter.
A higher measurement value means a stronger ability to reduce insulin resistance.

[4] = 100 uM compound, 24 hours, HepG2, lower value = stronger cholesterol synthesis inhibition
[5] = 500 uM compound, 24 hours, HepG2, lower value = stronger cholesterol synthesis inhibition
[6] = 100 uM compound, 24 hours, HepG2, lower value = stronger triglyceride synthesis inhibition
[7] = 500 uM compound, 24 hours, HepG2, lower value = stronger triglyceride synthesis inhibition
[8] = 100 uM compound, 24 hours, HepG2, lower value = stronger gluconeogenesis inhibition
[9] = 100 uM compound, 24 hours, HepG2, lower value = stronger cholesterol synthesis inhibition, hydrochloride
[10] = 500 uM compound, 24 hours, HepG2, lower value = stronger cholesterol synthesis inhibition, hydrochloride
[11] = 100 uM compound, 24 hours, HepG2, lower value = stronger triglyceride synthesis inhibition, hydrochloride
[12] = 500 uM compound, 24 hours, HepG2, lower value = stronger triglyceride synthesis inhibition, hydrochloride
[13] = 100 uM compound, 24 hours, HepG2, lower value = stronger gluconeogenesis inhibition, hydrochloride, 100 µM
[14] = 100 uM compound, 24 hours, HepG2, lower value = stronger gluconeogenesis inhibition, 100 µM

Row | Molecule | Cholesterol (100 uM) Aver. (HepG2 cells [1]; [4]) | Cholesterol (500 uM) Aver. (HepG2 cells [1]; [5]) | Triglyceride (100 uM) Aver. (HepG2 cells [2]; [6]) | Triglyceride (500 uM) Aver. (HepG2 cells [2]; [7]) | Gluconeogenesis inhibition (100 uM) Aver. (HepG2 cells [3]; [8]) | Glucose absorption (100 uM) Aver. (C2C12 cells) | also measured
1 | Cl.N=C(N)NC(=Nc1ccc(Oc2ccccc2)cc1)NCCc1cccs1 [Example 36, N1-2-(thiophen-2-ylethyl)-N2-(4-phenoxyphenyl) biguanide hydrochloride] | 31.22 | 34.74 | 20.95 | 17.89 | 1.54 | 4.50% | 
2 | CN=C(NCCc1sccc1C)NC(=N)N.Cl [Example 45, N1-2-(3-methylthiophen-2-ylethyl)-N2-methyl biguanide hydrochloride] | 77.03 | 63.78 | 92.38 | 89.00 | 94.51 | 264.76% | 
3 | Cl.N=C(N)NC(=NCC1CC1)NCCc1cccs1 [Example 43, N1-2-(thiophen-2-ylethyl)-N2-cyclopropylmethyl biguanide hydrochloride] | 88.47 | 78.80 | 90.52 | 79.92 | 99.28 | 196.03% | 
4 | Cl.N=C(N)NC(=Nc1cccc(C(F)(F)F)c1)NCCc1cccs1 [Example 14, N1-2-(thiophen-2-ylethyl)-N2-(3-trifluoromethyl)phenyl biguanide hydrochloride] | 23.3 | 41.4 | 11.8 | 13.2 | 8.75 | 4.38% | 
5 | Cl.N=C(N)NC(=Nc1ccc(-c2ccccc2)cc1)NCCc1cccs1 [Example 35, N1-2-(thiophen-2-ylethyl)-N2-(4-phenylphenyl) biguanide hydrochloride] | 28.27 | 30.49 | 18.94 | 14.92 | 109.62 | 35.00% | 
6 | CCCCN=C(NCCc1cccs1)NC(=N)N.Cl [Example 25, N1-2-(thiophen-2-ylethyl)-N2-butyl biguanide hydrochloride] |  |  |  |  |  |  | Cholesterol (100 uM) Aver. (HepG2 cells [1]; [9]): 32.66; Cholesterol (500 uM) Aver. (HepG2 cells [1]; [10]): 19.87; Triglyceride (100 uM) Aver. (HepG2 cells [2]; [11]): 19.21; Triglyceride (500 uM) Aver. (HepG2 cells [2]; [12]): 17.02; Gluconeogenesis inhibition (100 uM) Aver. (HepG2 cells [3]; [13]): 0.00; Glucose absorption (100 uM) Aver. (C2C12 cells; hydrochloride): 2.76%
7 | Cl.N=C(N)NC(=NC1CCCCCC1)NCCc1cccs1 [Example 22, N1-2-(thiophen-2-ylethyl)-N2-cycloheptyl biguanide hydrochloride] | 69.8 | 44.4 | 77.8 | 78.9 | 96.63 | 173.8% | 
8 | Cl.N=C(N)NC(=NCc1ccccc1)NCCc1cccs1 [Example 8, N1-2-(thiophen-2-ylethyl)-N2-t-benzyl biguanide hydrochloride] | 37.77 | 7.28 | 77.65 | 30.78 | 81.27 | 243.3% | 
9 | CN=C(NCCc1cccs1)NC(=N)N.Cl [Example 5, N1-2-(thiophen-2-ylethyl)-N2-methyl biguanide hydrochloride] |  | 41.36 |  | 41.59 |  |  | Cholesterol (100 uM) Aver. (HepG2 cells [1]; [9]): 49.29; Triglyceride (100 uM) Aver. (HepG2 cells [2]; [11]): 65.03; Gluconeogenesis inhibition (100 uM) Aver. (HepG2 cells [3]; [13]): 58.50; Glucose absorption (100 uM) Aver. (C2C12 cells; hydrochloride): 350.4%
10 | N1-2-(thiophen-2-ylethyl)-N2-(4-bromobenzyl) biguanide hydrochloride [Example 37] |  |  |  |  |  | 7.71% | Cholesterol (100 uM) Aver. (HepG2 cells [1]): 28.36; Cholesterol (500 uM) Aver. (HepG2 cells [1]): 30.84; Triglyceride (100 uM) Aver. (HepG2 cells [2]): 61.41; Triglyceride (500 uM) Aver. (HepG2 cells [2]): 20.15; Gluconeogenesis inhibition (100 uM) Aver. (HepG2 cells [3]): 89.96
11 | CN=C(NCCc1cccs1)NC(=N)N.Cl [Example 10, N1-2-(thiophen-2-ylethyl)-N2-methyl biguanide hydrochloride (isomer)] | 52.29 |  | 76.16 |  |  | 6.91% | Gluconeogenesis inhibition (100 uM) Aver. (HepG2 cells [3]; [14]): 5.72
12 | CCCCN=C(NCCc1cccs1)NC(=N)N.Cl [Example 26, N1-2-(thiophen-2-ylethyl)-N2-butyl biguanide hydrochloride (isomer)] | 43.20 | 13.28 | 47.59 | 30.67 |  | 18.34% | Gluconeogenesis inhibition (100 uM) Aver. (HepG2 cells [3]; [14]): 81.70
13 | COc1ccc(OC)c(N=C(NCCc2cccs2)NC(=N)N)c1.Cl [Example 31, N1-2-(thiophen-2-ylethyl)-N2-(2,5-dimethoxyphenyl) biguanide hydrochloride] |  |  |  |  |  |  | Cholesterol (100 uM) Aver. (HepG2 cells [1]; [9]): 75.67; Cholesterol (500 uM) Aver. (HepG2 cells [1]; [10]): 49.39; Triglyceride (100 uM) Aver. (HepG2 cells [2]; [11]): 81.74; Triglyceride (500 uM) Aver. (HepG2 cells [2]; [12]): 57.32; Gluconeogenesis inhibition (100 uM) Aver. (HepG2 cells [3]; [13]): 96.29; Glucose absorption (100 uM) Aver. (C2C12 cells; hydrochloride): 168.20%
14 | N1-2-(thiophen-2-ylethyl)-N2-t-butyl biguanide hydrochloride [Example 7] | 42.51 | 2.79 | 74.43 | 16.49 | 39.98 | 21.59% | 
